Values joined by “and” are separate entries in the source; they are usually repeats but may differ in a detail not shown here. Equal entries are not always repeated. Where two headings read alike, the source gives them in different places.
Assays:
RRMS patients [1] = test: FORTE phase 3 trial cohort: response to glatiramer acetate, ARR by predicted responder status; type: in vivo, human; details: for ARR reduced (improved) by: predicted responders vs predicted non-responders
Source text: As used herein, “FORTE” is a phase 3 clinical trial entitled “Clinical Trial Comparing Treatment of Relapsing-Remitting Multiple Sclerosis (RR-MS) With Two Doses of Glatiramer Acetate (GA).” The FORTE trial has the ClinicalTrials.gov Identifier NCT00337779 and additional information, including study results can be found at clinicaltrials.gov/ct2/show/NCT00337779.
(§1) Response definitions were received from patients from two large glatiramer acetate clinical trial cohorts (GALA, FORTE) and patients were categorized as responder, non-responder, extreme-responder, or extreme non-responder according to the criteria set forth in Table 1.
(§2) When analysis was conducted for all genotyped patients of the Gala and FORTE cohorts, based on the predictive model (11 SNPs and 2 clinical variables), 34% of GALA, and 42% of FORTE-patients were classified as “predicted responders”.
(§3) Analysis was conducted for all genotyped patients of the Gala and FORTE cohorts, based on the 11 SNPs in the predictive model, but without including the clinical variables, and using a threshold at ˜30% of the population classified as “predicted responders” (FIG. 9).
(§4) When analysis was conducted for all genotyped patients of the Gala and FORTE cohorts, based on the […] and 2 clinical variables, 34% of GALA, and 42% of FORTE-patients were classified as “predicted responders”.

RRMS patients [2] = test: GALA phase 3 trial cohort: response to glatiramer acetate, ARR by predicted responder status; type: in vivo, human
Method: As used herein, “GALA” is a phase 3 clinical trial entitled “A Study in Subjects With Relapsing-Remitting Multiple Sclerosis (RRMS) to Assess the Efficacy, Safety and Tolerability of Glatiramer Acetate (GA) Injection 40 mg Administered Three Times a Week Compared to Placebo (GALA).” The GALA trial has the ClinicalTrials.gov Identifier NCT01067521, and additional information about the trial can be found at clinicaltrials.gov/ct2/show/NCT01067521.
as §1, §2, §3, §4

RRMS patients [3] = test: Combined GALA and FORTE cohorts: patient responses by preliminary predictive model (11 SNPs and 2 clinical co-variates, threshold 0.71); type: in vivo, human; set-up: ARR reduced (improved) by: concentration or dose not given beside the values
Method: A predictive model was generated based on the 11 SNPs shown in tables 42, 43, 44a and 44b and the two Clinical co-variants shown in table 33.
Receiver Operating Characteristic (ROC) analysis was performed using the actual value (case or control) and predicted value for each sample from the multi-marker regression model (FIG. 1). For these preliminary analyses, two risk groups were defined using the predicted values from the multi-marker regression model. The predictive threshold value was set at 0.71 (termed “model 3”) based on a variety of factors after consultation with the Teva team and Teva MS clinical experts.
While 40% of patients were classified as “predicted non-responders” with an overall response rate of 34% (FIG. 5).

RRMS patients [4] = details: cited from earlier work
RRMS subjects = details: cited from earlier work
[5] = change in ARR <-1 and new T2 lesions = 0 and relapse free
[6] = change in ARR from previous 2 years <-1
[7] = change in ARR from previous 2 years ≧0
[8] = change in ARR ≧0 and new T2 lesions ≧1
[9] = predicted non-responders, 10 SNPs and 2 clinical variables
[10] = predicted non-responders, 11 SNPs without clinical variables
[11] = predicted non-responders, model of 11 SNPs and 2 clinical variables
[12] = predicted responders, 10 SNPs and 2 clinical variables, ± SEM
[13] = predicted responders, 11 SNPs without clinical variables, threshold ~30% of population, ± SEM
[14] = predicted responders, model of 11 SNPs and 2 clinical variables, ± SEM
[15] = predicted responders compared to predicted non-responders
[16] = predicted responders compared to the overall cohort
[17] = predicted responders compared to the overall patient cohort
[18] = predicted responders, ± standard error of the mean

With glatiramer acetate the “Extreme Responders, % of cohort” value (RRMS patients [1]; [5]) was “(16%)”, the “Extreme Responders, number of samples” value (RRMS patients [1]; [5]) was 95 and the “Responders, % of cohort” value (RRMS patients [1]; [6]) was “(36%)”. The “Responders, number of samples” value (RRMS patients [1]; [6]) was 221, the “Non-Responders, % of cohort” value (RRMS patients [1]; [7]) was “(11%)” and the “Non-Responders, number of samples” value (RRMS patients [1]; [7]) was 68. The “Extreme Non-Responders, % of cohort” value (RRMS patients [1]; [8]) was “(6%)”, the “Extreme Non-Responders, number of samples” value (RRMS patients [1]; [8]) was 38 and the “annualized relapse rate (ARR)” value (RRMS patients [1]; [9]) was 0.368±0.039. The “annualized relapse rate (ARR)” value (RRMS patients [1]; [10]) was 0.290±0.03, the “annualized relapse rate (ARR)” value (RRMS patients [1]; [11]) was 0.368±0.039 and the “ARR reduced (improved) by” value (RRMS patients [1]; 10 SNPs and 2 clinical variables) was 72%. For the same substance, the “ARR reduced (improved) by” value (RRMS patients [1]; 11 SNPs and 2 clinical variables) was 72%, the “ARR reduced (improved) by” value (RRMS patients [1]; 11 SNPs without clinical variables) was 50% and the “annualized relapse rate (ARR)” value (RRMS patients [1]; [12]) was 0.102±0.020. For the same substance, the “annualized relapse rate (ARR)” value (RRMS patients [1]; [13]) was 0.145±0.029, the “annualized relapse rate (ARR)” value (RRMS patients [1]; [14]) was 0.102±0.020 and the “Extreme Responders, % of cohort” value (RRMS patients [2]; [5]) was “(8.5%)”. The “Extreme Responders, number of samples” value (RRMS patients [2]; [5]) was 66, the “Responders, % of cohort” value (RRMS patients [2]; [6]) was “(26%)” and the “Responders, number of samples” value (RRMS patients [2]; [6]) was 200. For the same substance, the “Non-Responders, % of cohort” value (RRMS patients [2]; [7]) was “(16%)”, the “Non-Responders, number of samples” value (RRMS patients [2]; [7]) was 123 and the “Extreme Non-Responders, % of cohort” value (RRMS patients [2]; [8]) was “(10%)”. For the same substance, the “Extreme Non-Responders, number of samples” value (RRMS patients [2]; [8]) was 79, the “annualized relapse rate (ARR)” value (RRMS patients [2]; [9]) was 0.374±0.038 and the “annualized relapse rate (ARR)” value (RRMS patients [2]; [10]) was 0.382±0.037. For the same substance, the “annualized relapse rate (ARR)” value (RRMS patients [2]; [11]) was 0.374±0.038, the “ARR reduced (improved) by” value (RRMS patients [2]; predicted responders vs placebo, 10 SNPs and 2 clinical variables) was 64% and the “ARR reduced (improved) by” value (RRMS patients [2]; predicted responders vs placebo, 11 SNPs and 2 clinical variables) was 64%. For the same substance, the “ARR reduced (improved) by” value (RRMS patients [2]; predicted responders vs placebo, 11 SNPs without clinical variables) was 71%, the “ARR reduced (improved) by” value (RRMS patients [2]; predicted responders vs predicted non-responders, 10 SNPs and 2 clinical variables) was 51% and the “ARR reduced (improved) by” value (RRMS patients [2]; predicted responders vs predicted non-responders, 11 SNPs and 2 clinical variables) was 51%. The “ARR reduced (improved) by” value (RRMS patients [2]; predicted responders vs predicted non-responders, 11 SNPs without clinical variables) was 62%, the “annualized relapse rate (ARR)” value (RRMS patients [2]; [12]) was 0.185±0.032 and the “annualized relapse rate (ARR)” value (RRMS patients [2]; [13]) was 0.131±0.026. The “annualized relapse rate (ARR)” value (RRMS patients [2]; [14]) was 0.185±0.032, the EDSS progression (RRMS patients [3]; overall cohort) was 0.057 and the response rate (RRMS patients [3]; overall cohort) was 68%. The “annualized relapse rate (ARR)” value (RRMS patients [3]; overall patient cohort) was 0.53±0.04, the “number of confirmed relapses (nrelapse)” value (RRMS patients [3]; overall patient cohort) was 0.46±0.03 and the EDSS progression (RRMS patients [3]; predicted non-responders) was 0.10±0.02. For the same substance, the “annualized relapse rate (ARR)” value (RRMS patients [3]; predicted non-responders) was 1.04±0.08, the “number of T1 enhancing lesions at month 12” value (RRMS patients [3]; predicted non-responders) was 1.70±0.38 and the “number of confirmed relapses (nrelapse)” value (RRMS patients [3]; predicted non-responders) was 0.88±0.06. The response rate (RRMS patients [3]; predicted non-responders, Gala and Forte cohorts) was 34%, the EDSS progression (RRMS patients [3]; predicted responders) was 0.03±0.01 and the “number of T1 enhancing lesions at month 12” value (RRMS patients [3]; predicted responders) was 0.91±0.18. For the same substance, the “ARR reduced (improved) by” value (RRMS patients [3]; [15]) was 80%, the improved response rate (RRMS patients [3]; [15]) was 2.7 fold and the “number of T1 enhancing lesions at month 12 reduced (improved) by” value (RRMS patients [3]; [15]) was 47%. The “number of confirmed relapses reduced (improved) by” value (RRMS patients [3]; [15]) was 78%, the “improvement in response rate” value (RRMS patients [3]; [16]) was 34% and the “reduced EDSS progression” value (RRMS patients [3]; [16]) was 49%. The “ARR reduced (improved) by” value (RRMS patients [3]; [17]) was 60%, the “number of confirmed relapses reduced (improved) by” value (RRMS patients [3]; [17]) was 58% and the “EDSS progression delayed (improved) by” value (RRMS patients [3]; predicted responders versus predicted non-responders) was 72%. The response rate (RRMS patients [3]; predicted responders, Gala and Forte cohorts) was 91.1% and 91%, the “annualized relapse rate (ARR)” value (RRMS patients [3]; [18]) was 0.21±0.03 and the “number of confirmed relapses (nrelapse)” value (RRMS patients [3]; [18]) was 0.19±0.03. For the same substance, the response rate (RRMS patients [4]; DRB1*1501 carriers) was 81.8%, the response rate (RRMS patients [4]; non-carriers of DRB1*1501) was 39.4% and the response rate (RRMS patients [4]; whole study population (N=83 RRMS)) was 50%. The “relapse rate reduced by” value (RRMS subjects; GA 20 mg vs placebo, largest controlled study) was 32%, the tolerability (RRMS subjects; daily standard dose of 20 mg) was “generally well tolerated” and the “median cumulative number of Gd-enhancing lesions” value (RRMS subjects; over 9 months of treatment, 20 mg group) was 11 lesions. The relapse rate (RRMS subjects; under GA 20 mg, largest controlled study) was 1.34.
